Test results reported in patent US8653304B2, “2,3-dihydro-1H-indene-2-yl urea derivative and pharmaceutical application of same” (Toray Industries, Inc., priority 2009, dated 2014).

What was measured:
TNFα production = test: Cytokine production suppressing activity using human whole blood (LPS stimulation); format: cell-based; details: LPS 200 ng/mL, 37° C., 5 hours
Protocol: Using human whole blood, the inhibitory action of Compound (I) on the TNFα production by LPS stimulation was studied by a method partially modified from the method described in Journal of Medicinal Chemistry (2003, Vol. 46, pp. 4676-4686).
A solution of each test compound in 100% DMSO and human blood were mixed in a 96-well flat-bottom plate. Thereafter, LPS (Final Concentration: 200 ng/mL) was added, and the resulting mixture was allowed to react at 37° C. for 5 hours (the final concentration of DMSO was 0.2%). After the reaction, the resultant was centrifuged for 20 minutes at room temperature, and the supernatant was collected. For the measurement of the TNFα amount in the supernatant, a human cytokine kit (CIS bio international) was used. As a comparative control compound, Comparative Compound 2 was used.

human p38 MAPK α = human p38 MAPK α (Homo sapiens (Human), UniProt Q16539); test: Evaluation of p38 MAPK inhibitory activity (Alpha Screen, ATF2 phosphorylation); format: biochemical; details: p38α/SAPK2a 1.5 nM, ATP 100 μM, biotinylated ATF2 30 nM
Protocol: Using human p38 MAPK α, the p38 MAPK inhibitory activity of Compound (I) was studied by a method partially modified from the method described in Current Medicinal Chemistry (2004, No. 11, pp. 721-730).
A solution of each test compound solution in 100% DMSO and a p38α/SAPK2a solution (Final Concentration: 1.5 nM) (Invitrogen) were added to a 384-well plate, and then the plate was incubated at room temperature in a dark place for 1 hour. Thereafter, ATP (Final Concentration: 100 μM), which is a phosphate donor, and biotinylated ATF2 (Final Concentration: 30 nM) (upstate), which is a substrate, were added, and the resulting mixture was allowed to react at room temperature in a dark place for 1 hour (the final concentration of DMSO was 0.25%). After the reaction, an anti-phosphorylated ATF2 antibody (Final Concentration: 1 nM) (Cell Signaling), anti-IgG acceptor beads (Final Concentration: 20 μg/mL) (PerkinElmer) and streptavidin donor beads (Final Concentration: 20 μg/mL) (PerkinElmer) were added, and the resultant was incubated at room temperature in a dark place for 1 hour. Using a microplate analyzer (Fusion-α, Packard) in Alpha Screen method (Amplified Luminescent Proximity Homogeneous Assay), the light emission was detected. The IC50 value of each compound was calculated by sigmoidal dose-response regression using Prism 4.02 (GraphPad Software, Inc.).

ICR mouse = test: Evaluation of hepatotoxicity in mouse (plasma AST); format: in vivo; details: oral 500 mg/kg, plasma on the day after administration
Protocol: Compound (I) was suspended in 0.5% methylcellulose (Wako Pure Chemical Industries, Ltd.) to prepare a 50 mg/mL solution to be administered. To each ICR mouse (male, 7-week old, Charles River Laboratories Japan, Inc.), each compound was orally administered at a dose of 500 mg/kg. On the day after the administration, blood was collected from the posterior vena cava, and the obtained blood was centrifuged to collect blood plasma. AST (aspartate aminotransferase) value, which is a marker of hepatic disorders in blood plasma, was measured with a biochemistry automatic analyzer (Hitachi 7070, Hitachi, Ltd.). Comparative Compound 4 was suspended in 0.5% sodium carboxymethylcellulose (Wako Pure Chemical Industries, Ltd.) before use.

[1] = Pharmacokinetic evaluation in mouse (oral); format: in vivo; details: male; BALB/c mouse, oral 0.8 mg/kg, plasma
Protocol: Each test compound was dissolved in 10% HP-β-CD (Nihon Shokuhin Kako Co., Ltd.) to prepare a solution to be administered (0.08 mg/mL, as a solution to be administered for oral administration). To each BALB/c mouse (male, 7-week old, Charles River Laboratories Japan, Inc.), each compound was orally administered at a dose of 0.8 mg/kg. Blood was collected from the jugular vein or heart with time up to 24 hours after the administration. The obtained blood was centrifuged to collect blood plasma. The blood plasma was pretreated by methanol extraction method, and the concentration of the compound was analyzed by LC/MS/MS (ESI positive mode).
In this table, Cmax represents a maximum plasma concentration; and AUC0-∞ represents an area under the curve of the plasma concentration of the compound from after the compound administration to infinite time.

human p38 MAPK α, sequence (Q16539 whole entry): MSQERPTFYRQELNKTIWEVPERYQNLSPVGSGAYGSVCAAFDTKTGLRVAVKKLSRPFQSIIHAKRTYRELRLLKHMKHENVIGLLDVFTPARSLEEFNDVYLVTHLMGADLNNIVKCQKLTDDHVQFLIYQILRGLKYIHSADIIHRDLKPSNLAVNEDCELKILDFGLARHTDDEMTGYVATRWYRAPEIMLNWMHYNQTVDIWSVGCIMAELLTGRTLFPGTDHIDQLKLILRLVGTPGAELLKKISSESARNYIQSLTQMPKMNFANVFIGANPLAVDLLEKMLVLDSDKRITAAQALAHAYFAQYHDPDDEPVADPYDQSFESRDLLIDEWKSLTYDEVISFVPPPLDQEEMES

| IC50 (TNFα production) [nM] | IC50 (human p38 MAPK α) [nM] | SMILES | also measured |
| --- | --- | --- | --- |
| 109 | 24 | COc1cccc2c1C[C@@H](NC(=O)Nc1cc(C(C)(C)C)cc([C@H](O)C(F)(F)F)c1OC)[C@H]2O (single isomer, unassigned) [Compound 52b] | – |
| 115 | 16 | COc1c(NC(=O)N[C@@H]2Cc3c(F)cccc3[C@@H]2O)cc(N2CCOCC2)cc1[C@H](O)C(F)(F)F (single isomer, unassigned) [Compound 84b] | – |
| – | – | Cc1ccc(-n2nc(C(C)(C)C)cc2NC(=O)Nc2ccc(OCCN3CCOCC3)c3ccccc23)cc1 [Comparative Compound 4, 1-(3-tert-butyl-1-p-tolyl-1H-pyrazol-5-yl)-3-(4-(2-morpholinoethoxy)naphthalen-1-yl)urea, reference compound] | AST value (ICR mouse): 145 U/L |
| – | 18 | COc1c(NC(=O)N[C@@H]2Cc3ccccc3[C@@H]2O)cc(C(C)(C)C)cc1C(N)C(F)(F)F (stereo partly drawn) [Compound 47b, 1-(3-(1-amino-2,2,2-trifluoroethyl)-5-tert-butyl-2-methoxyphenyl)-3-((1S,2R)-1-hydroxy-2,3-dihydro-1H-indene-2-yl)urea] | – |
| – | 117 | COc1c(NC(=O)NC2Cc3ccccc3C2)cc(C(C)(C)C)cc1C(O)C(F)(F)F (stereo not drawn) [Comparative Compound 1, 1-(5-tert-butyl-2-methoxy-3-(2,2,2-trifluoro-1-hydroxyethyl)phenyl)-3-(2,3-dihydro-1H-indene-2-yl)urea, reference compound] | – |
| 5190 | – | COc1c(CO)cc(C(C)(C)C)cc1NC(=O)NC1Cc2ccccc2C1 [Comparative Compound 2, 1-(5-tert-butyl-3-(hydroxymethyl)-2-methoxyphenyl)-3-(2,3-dihydro-1H-indene-2-yl)urea] | AUC(0-inf) [1]: 116 ng·h/mL; Cmax [1]: 79.7 ng/mL |
| – | 29 | CCC(C)(C)c1cc(NC(=O)N[C@@H]2Cc3ccccc3[C@@H]2O)c(OC)c([C@H](O)C(F)(F)F)c1 (single isomer, unassigned) [Compound 123b] | – |
| 182 | – | COc1c(NC(=O)N[C@H]2Cc3ccc(F)cc3[C@H]2O)cc(C(C)(C)C)cc1[C@@H](O)C(F)(F)F [Compound 60b, 1-(5-tert-butyl-2-methoxy-3-((R)-2,2,2-trifluoro-1-hydroxyethyl)phenyl)-3-(cis-6-fluoro-1-hydroxy-2,3-dihydro-1H-indene-2-yl)urea] | – |
| – | – | C[S+]([O-])c1ccc(-c2nc(-c3ccncc3)c(-c3ccc(F)cc3)[nH]2)cc1 (stereo not drawn) [Comparative Compound 5, 4-(4-(4-fluorophenyl)-2-(4-(methylsulfinyl)phenyl)-1H-imidazol-5-yl)pyridine] | AUC(0-inf) [1]: 59.8 ng·h/mL; Cmax [1]: 11.4 ng/mL |
| 235 | – | COc1c(CO)cc(C(C)(C)C)cc1NC(=O)N[C@@H]1Cc2c(F)cccc2[C@@H]1O [Compound 3, 1-(5-tert-butyl-3-(hydroxymethyl)-2-methoxyphenyl)-3-((1S,2R)-4-fluoro-1-hydroxy-2,3-dihydro-1H-indene-2-yl)urea] | – |
